Measurements reported in PMC8167934 (Cancer letters, 2021).

Columns and labels:
[1] = target: thioesterase (TE) domain of FASN (Homo sapiens, UniProt P49327); assay: TE activity assay with recombinant TE; settings: recombinant TE 500 nM
breast cancer patients = assay: Retrospective EMR analysis of overall survival of breast cancer patients; type: in vivo, human
[2] = system: homologous recombination activity; assay: Host cell reactivation assay of homologous recombination activity; type: cell-based, human; settings: 10 µM twice a day for three days
[3] = system: NHEJ activity in MCF7 cells; assay: Host cell reactivation assay of NHEJ activity, MCF7; type: cell-based, human
MCF7 cells [4] = assay: Flow cytometry of apoptosis and cell cycle, MCF7; type: cell-based, human
γ-H2AX in MCF7 cells = assay: γ-H2AX level; type: cell-based, human
MCF7 cells [5] = assay: Colony formation combination with ionizing radiation, MCF7; type: cell-based, human; settings: pre-treated with 10 µM once a day for 3 days
M3K/Sh cells = assay: Colony formation assay, MCF7/AdVp3000 cells with FASN knockdown; type: cell-based, human; settings: FASN knockdown vs M3K/Scr
MCF7/FASN cells = assay: Colony formation assay, MCF7 cells with ectopic FASN over-expression; type: cell-based, human; settings: ectopic FASN over-expression vs MCF7/Vec
MCF7 cells [6] = assay: Colony formation combination study with doxorubicin; type: cell-based, human; settings: combination with doxorubicin at potency ratios 50/50, 25/75, 75/25
MDA-MB-468 cells [7] = assay: Flow cytometry of apoptosis and cell cycle, MDA-MB-468; type: cell-based, human
PARP1 expression = assay: Western blot analysis of PARP1 expression; type: cell-based, human; settings: MCF7, T47D, MDA-MB-231 and MDA-MB-468 cells, different concentrations
MDA-MB-468 cells [8] = assay: Colony formation combination study with doxorubicin; type: cell-based, human; settings: combination with doxorubicin at potency ratios 50/50, 25/75, 75/25
[9] = system: NHEJ activity in MDA-MB-468 cells; assay: Host cell reactivation assay of NHEJ activity, MDA-MB-468; type: cell-based, human; settings: 10 µM twice a day for three days
[10] = system: γ-H2AX in MDA-MB-468 cells; assay: γ-H2AX level; type: cell-based, human
MDA-MB-468 cells [11] = assay: Colony formation combination with ionizing radiation, MDA-MB-468; type: cell-based, human; settings: pre-treated with 10 µM once a day for 3 days
TNBC patients = settings: high dose omeprazole added to neoadjuvant TNBC treatment; cited from earlier work
db/+ and db/db mice = settings: chronic use, cited from earlier work
[12] = esomeprazole users vs omeprazole users, pairwise comparison
[13] = users of the PPI vs non-PPI users
[14] = 10–20 mg users vs non-PPI users

Sequence of thioesterase (TE) domain of FASN (P49327 2207-2511 limits assumed): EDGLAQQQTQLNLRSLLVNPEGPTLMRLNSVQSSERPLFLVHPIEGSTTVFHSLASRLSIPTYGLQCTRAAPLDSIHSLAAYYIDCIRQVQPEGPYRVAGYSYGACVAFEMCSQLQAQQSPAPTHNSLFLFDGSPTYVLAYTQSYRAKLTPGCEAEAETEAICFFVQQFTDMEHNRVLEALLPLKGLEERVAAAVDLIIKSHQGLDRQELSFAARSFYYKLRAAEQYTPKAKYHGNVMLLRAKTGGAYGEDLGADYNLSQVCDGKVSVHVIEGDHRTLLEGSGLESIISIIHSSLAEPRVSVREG

Structure (SMILES): Cc1c(OCC(F)(F)F)ccnc1C[S@@+]([O-])c1nc2ccccc2[nH]1 [R-lansoprazole, dexlansoprazole]
- Inhibition of TE activity of FASN (Ki), enantiomer comparison [1]: significantly more effective than the S-lansoprazole

Structure (SMILES): COc1ccc2nc([S@@+]([O-])Cc3ncc(C)c(OC)c3C)[nH]c2c1 [esomeprazole]
- Overall survival, multivariant HR (breast cancer patients; 20 mg users vs non-PPI users): 0.73
- Overall survival, univariant HR (breast cancer patients; 20 mg users vs non-PPI users): 1.0
- Overall survival, multivariant HR (breast cancer patients; 40 mg users vs non-PPI users): 0.33
- Overall survival, univariant HR (breast cancer patients; 40 mg users vs non-PPI users): 0.3
- Overall survival, multivariate HR (breast cancer patients; [12]): 1.64
- Overall survival, univariate HR (breast cancer patients; [12]): 1.62
- Overall survival, univariate HR (breast cancer patients; [13]): 0.52

Structure (SMILES): Cc1c(OCC(F)(F)F)ccnc1C[S+]([O-])c1nc2ccccc2[nH]1 (centres unmarked) [lansoprazole]
- Overall survival, univariate HR (breast cancer patients; [13]): 0.20
- Homologous recombination activity [2]: did not change
- NHEJ activity ([3]; MCF7, 10 µM twice a day for three days): significantly reduced
- NHEJ activity with ectopic FASN over-expression ([3]; MCF7 cells over-expressing ectopic FASN): rescued NHEJ activity
- Apoptosis (MCF7 cells [4]): dose-dependently induced apoptosis
- γ-H2AX level (γ-H2AX in MCF7 cells; MCF7, lansoprazole alone): increased γ-H2AX level in a dose-dependent manner
- γ-H2AX level at 4 hrs post-IR versus 1 hr (γ-H2AX in MCF7 cells; MCF7, lansoprazole pre-treatment, 5 Gy IR): no reduction
- Doxorubicin-induced γ-H2AX production (γ-H2AX in MCF7 cells; MCF7, lansoprazole with doxorubicin): synergistically increased
- Lansoprazole-induced γ-H2AX increase with ectopic FASN over-expression (γ-H2AX in MCF7 cells; over-expressing ectopic FASN): ablated
- Sensitization to IR treatment (MCF7 cells [5]): sensitized
- Lansoprazole resistance (relative resistance factor) (M3K/Sh cells): reduced
- Lansoprazole resistance (relative resistance factor) (MCF7/FASN cells): increased
- Combination index (MCF7 cells [6]): < 1.0
- Apoptosis (MDA-MB-468 cells [7]; MDA-MB-468): dose-dependently induced apoptosis
- Cell cycle arrest phase (MDA-MB-468 cells [7]; MDA-MB-468, dose-dependent): S phase
- PARP1 expression (PARP1 expression): dose-dependently reduced
- Combination index (MDA-MB-468 cells [8]): < 1.0
- NHEJ activity [9]: significantly reduced
- γ-H2AX level ([10]; MDA-MB-468, lansoprazole alone): increased γ-H2AX level in a dose-dependent manner
- γ-H2AX level at 4 hrs post-IR versus 1 hr ([10]; MDA-MB-468, lansoprazole pre-treatment, 5 Gy IR): no reduction
- Doxorubicin-induced γ-H2AX production ([10]; MDA-MB-468, lansoprazole with doxorubicin): synergistically increased
- Sensitization to IR treatment (MDA-MB-468 cells [11]): sensitized

Structure (SMILES): COc1ccc2[nH]c([S+]([O-])Cc3ncc(C)c(OC)c3C)nc2c1 (centres unmarked) [omeprazole]
- Overall survival, multivariant HR (breast cancer patients; 40 mg users vs non-PPI users): 0.12
- Overall survival, univariant HR (breast cancer patients; 40 mg users vs non-PPI users): 0.21
- Overall survival, multivariant HR (breast cancer patients; [14]): 0.28
- Overall survival, univariant HR (breast cancer patients; [14]): 0.33
- Overall survival, univariate HR (breast cancer patients; [13]): 0.33
- FASN activities in tumors (TNBC patients): inhibited
- Toxicity (TNBC patients): without adding toxicity
- pCR rate (TNBC patients): ~ 74%

Structure (SMILES): COc1ccnc(C[S+]([O-])c2nc3ccc(OC(F)F)cc3[nH]2)c1OC (centres unmarked) [pantoprazole]
- Overall survival, univariate HR (breast cancer patients; [13]): 0.43

Structure (SMILES): CC12C[C@@]34C=CC(=O)[C@@](C)(CCC(=O)Nc5c(O)ccc(C(=O)O)c5O)C3[C@H](CC1C4)O2 (some centres unmarked) [platensimycin]
- Insulin sensitivity (db/+ and db/db mice; db/+ mice fed with high-fructose diet): improved insulin sensitivity
- Ambient glucose levels (db/+ and db/db mice; db/db mice): reduced ambient glucose levels
